“Also recorded” adds a separate entry of the source.
Columns and labels:
[1] = test system: mouse model of hyperglycemia; assay: Oral glucose tolerance test in mice (mouse model of hyperglycemia); assay type: in vivo; details: for blood glucose levels / blood glucose load in mouse model of type II diabetes: mice administered high levels of glucose
Description: Type II diabetes is characterized by high blood glucose levels in the presence of normal amounts of insulin. Animal models of type II diabetes involve administering high levels of glucose and measuring blood glucose levels and the ability of the experimental animal to maintain glucose homeostasis over time. Several pharmacological structural classes can effectively regulate this hyperglycemic response including sulfonylureas, thiazoladinediones (PPARγ agonists; glitazones) or metformin (glucophage). These drug classes are also clinically approved for use in humans. In the current study, we established a mouse model of hyperglycemia by administering high levels of glucose to mice.
Glucose was formulated in water at a concentration of 150 mg/ml and dosed at a volume of 10 ml/kg to produce a dose of 1.5 g/kg. Glucose was measured using the Ascensia II Elite XL glucose monitor (Bayer). Measure glucose by taking a small (2 mm) section off the tip of the tail, bleed onto glucose test strip and measure. Data for each time point analyzed by ANOVA and post-hoc Tukey's test. A p value of less then 0.05 was used to indicate statistical significance.
In study 1, mice were dosed with Compound 102 and glucose as follows:
In study 2, mice were dosed with Compound 102 and glucose as follows.
Study 3 tested Compound 102 and was conducted as follows: […]

Db/Db mice [2] = assay: In vivo Db/Db mouse obesity study
Procedure: (§1) Db/Db and Db/lean mice were obtained from Harlan at 6 weeks of age. Mice were housed 3 per cage and fed ad libitum normal rodent chow. Mice were kept on a 12 hr Light:dark cycle.
(§2) The study was initiated when mice reached an age of 8 weeks and their baseline blood glucose levels were greater than 200 mg/dl. Compound 102 was formulated in PBS: 2N HCl (99:1) at concentrations of 0.5, 1.5 and 5 mg/ml. Mice were dosed at volumes of 10 ml/kg to produce doses of 5, 15 and 50 mg/kg/dose. Mice were dosed twice per day at an 8 hr interval (8 am and 4 pm) during the light cycle.
Mice were administered vehicle or drug (i.e., Compound 102) (5, 15, and 50 mg/kg) twice per day (bid) for the 28 days. Mouse weight and food intake were monitored daily. Food intake is reported as food intake (grams) per mouse per 24 hr period.

Db/Db mice [3] = assay: In vivo Db/Db mouse glucose study
Procedure: as §1, §2
For the acute blood glucose measurements, blood glucose levels were measured after the animals received their first dose of Compound 102. Blood glucose levels were measured two hrs after this initial injection.

[4] = test system: Male CD1/ICR mice fed Western Diet; assay: Western diet study: weight gain, food intake, fat pad weights; assay type: in vivo
Description: Male CD1/ICR mice were obtained from Harlan. The study was started when mice were 8 weeks of age. Prior to initiation of the study mice fasted for 24 hrs. Mice were fed “Western Diet” that was designed to approximate the “typical” human diet of North America and Europe (Research Diets; New Brunswick, N.J.; Western Diet composition). The Western Diet contained greater then 5 times more fat then normal chow. [table] Mice were weighed daily beginning from the start of the 24 hr fasting period. Food intake was monitored continuously. Mice were bled by retroorbital eyebleed on days 7, 14, 21 and 28 after the initiation of the study. On day of REB mice were dosed 1× with full dose 1 hr prior to bleed. Fat pads were dissected at the end of the study (day 31) weighed and frozen. The following fat pads were dissected: brown, inguinal, axial, mesenteric, renal and epidydimal. Data were averaged and analyzed by ANOVA followed by a post-hoc Tukey's test with a p value of less then 0.05 indicating a statistical difference.

Lyn Kinase enzyme = Lyn Kinase enzyme (Homo sapiens, UniProt P07948); assay: In vitro Lyn kinase enzyme activity; assay type: biochemical; details: FIG. 12
leptin = assay: Leptin levels in Western diet treated animals (ELISA); assay type: in vivo; details: Western diet mice
Procedure: Blood from mice that were on western diet (Compound 102) were analyzed for leptin levels. Mice were bled by retroorbital eyebleed on days 7, 14, 21 and 28 after the initiation of the study. On day of REB mice were dosed once with full dose 1 hr prior to bleed. Leptin levels were determined by ELISA (R&D Systems) as per directions. Data are expressed as the average ±SEM. Data were averaged and analyzed by ANOVA followed by a post-hoc Tukey's test with a p value of less then 0.05 indicating a statistical difference.

Zucker rats = assay: In vivo Zucker rat glucose study; details: 30 mg/kg ip, glucose 1.5 g/kg, 30 and 270 minutes
Procedure: Zucker rats and corresponding lean rats were supplied by Harlan. Rats were fed a normal diet, ad libitum, and kept on a 12 hr light/dark cycle. Rats were housed 3 per cage. At 12 weeks of age, Zucker rats were administered Compound 102 at a concentration of 30 mg/kg (ip). Blood glucose levels were measured 30 minutes after administration. Forty-five minutes after drug administration, animals were administered a glucose solution (1.5 g/kg) by oral gavage. Blood glucose levels were measured every 30 minutes after gavage for 4.5 hrs. There were 3 groups with 3 animals per group: 1) 3 Zucker leans (no drug; no glucose treatment); 2) Zucker vehicle treated group (glucose challenged and 3) Zucker Compound 102 treatment (30 mg/kg); glucose challenged.

Db/Db mice [5] = assay: In vivo Db/Db mouse obesity study; details: chronic administration to mice
[6] = single dose of 2 or 10 mg/kg, FIG. 3

Sequence of Lyn Kinase enzyme (P07948 whole entry): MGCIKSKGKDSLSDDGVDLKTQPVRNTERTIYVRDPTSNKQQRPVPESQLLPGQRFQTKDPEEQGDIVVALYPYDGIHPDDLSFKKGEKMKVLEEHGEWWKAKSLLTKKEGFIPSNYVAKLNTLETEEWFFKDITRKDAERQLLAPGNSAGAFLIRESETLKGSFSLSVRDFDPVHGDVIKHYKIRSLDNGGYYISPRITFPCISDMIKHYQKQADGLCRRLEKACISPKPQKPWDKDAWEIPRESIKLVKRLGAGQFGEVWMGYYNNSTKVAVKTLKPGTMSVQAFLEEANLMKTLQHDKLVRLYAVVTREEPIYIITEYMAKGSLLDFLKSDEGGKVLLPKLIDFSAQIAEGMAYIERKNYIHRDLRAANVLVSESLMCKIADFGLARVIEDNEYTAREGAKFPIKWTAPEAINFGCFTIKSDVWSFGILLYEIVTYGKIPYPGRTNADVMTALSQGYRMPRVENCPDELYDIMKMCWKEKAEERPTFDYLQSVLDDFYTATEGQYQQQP

With `CN(C)C(=N)N=C(N)N` [metformin, reference compound] the “blood glucose levels / blood glucose load in mouse model of type II diabetes” value [1] was “can effectively reduce the blood glucose load”.

`Cc1cccc(Oc2cnc(=O)[nH]c2)c1` [Compound 102] was tested, and the “animal weight gain, dose dependence” value (Db/Db mice [2]; Db/Db mice, IP twice/day, four weeks) was “dose dependent effect”, the food intake (Db/Db mice [2]; Db/Db mice, bid, 28 days) was “without affecting food intake” and the weight gain (Db/Db mice [2]; Db/Db mice, bid, 28 days) was “significantly lowered; also recorded: reduction in weight gain”. The defecation (Db/Db mice [2]; chronic administration to mice) was “defecated normally”, the “food intake compared to vehicle-treated animals” value (Db/Db mice [2]; chronic administration to mice) was “normal food intake” and the “hyperactivity (as with amphetamine class of weight-loss drugs)” value (Db/Db mice [2]; mouse, in vivo) was “did not display the hyperactivity”. For the same compound, the “acute blood glucose response upon study initiation and on weekly testing” value (Db/Db mice [3]; 15 mg/kg and 50 mg/kg dose groups) was “acute dose response”, the “blood glucose levels following acute administration” value (Db/Db mice [3]; 2 hrs after first dose) was “reduce blood glucose levels; also recorded: reduction in glucose levels” and the “blood glucose levels, dose dependence” value (Db/Db mice [3]; IP twice/day, four weeks) was “dose dependent effect”. The food intake [4] was “not affected”, the “brown, axial, inguinal, renal and epididymal fat pad increases” value ([4]; day 31) was “significantly reduced” and the weight gain ([4]; highest dose tested (30 mg/kg/day)) was “significantly reduced; also recorded: significant alteration in weight change”. The “in vitro activity of Lyn Kinase enzyme” value (Lyn Kinase enzyme) was “increased in vitro activity”, the blood leptin levels (leptin) was “reduced leptin levels to those fed a normal diet” and the “blood glucose levels / blood glucose load in mouse model of type II diabetes” value [1] was “effective in reducing blood glucose levels”. The “time after drug administration at which significance was lost” value ([1]; study 1, single administration, 30 mg/kg) was 90 min, the “normal blood glucose levels (pre-glucose loading)” value ([1]; study 1, single administration, 30 mg/kg, mice) was “significantly decreased” and the “blood glucose levels produced by oral glucose administration” value ([1]; study 1, single administration, 30 mg/kg, oral glucose 1.5 g/kg) was “significantly attenuated”. The “effect on blood glucose levels” value ([1]; study 2, increased dosing (four times at 30 minute intervals)) was “more dramatic effect”, the “blood glucose levels after oral glucose challenge” value (Zucker rats) was “reduced blood glucose levels at both time points; also recorded: reduction is blood glucose levels” and the “weight-gain response of animals fed a high fat diet” value (Db/Db mice [5]) was “significantly inhibited”.

In the case of `O=c1ncc(Oc2cccc(Cl)c2)c[nH]1` [Compound 105], the “blood glucose levels / blood glucose load in mouse model of type II diabetes” value [1] is reported as “effective in reducing blood glucose levels”, the “baseline blood glucose levels” value [1, 6] is reported as “significantly depressed” and the “blood glucose levels at all time points after administration” value [1, 6] is reported as “significantly (P<0.05) reduced”.

From patent US8343985B2, “Methods for modulating Lyn kinase activity and treating related disorders” (Melior Pharmaceuticals I, Inc., priority 2005, dated 2013)
